{"source": "the supplement of paper PMC10307832", "test_in_all_cases": "relative viability (nuclei count vs DMSO), 5 days (fraction); higher = more cells survive", "key": {"[1]": {"compound": "CC1=C(C=CC(=C1)[N+](=O)[O-])NS(=O)(=O)C2=C(C=CC(=C2)Cl)Cl [FH535]", "in_short": "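Nuclei counted with MetaXpress define viability as the ratio of treated to vehicle wells, given as a median across plates. The lung cancer cell lines were in 1536-well plates, pinned with five √10-spaced library-drug doses and imaged at 4× after 5 days and Hoechst staining. Plates passed with control CV below 25% and at least one doubling.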"}, "[2]": {"compound": "CC1=C(C=CC(=C1)[N+](=O)[O-])NS(=O)(=O)C2=C(C=CC(=C2)Cl)Cl [FH535] + O=C(c1cc(Cc2n[nH]c(=O)c3ccccc23)ccc1F)N1CCN(C(=O)C2CC2)CC1 [Olaparib] (partner 8 µM)", "in_short": "(§1)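 Relative viability equals treated-well nuclei counts divided by vehicle-well nuclei counts. Counts came from 4× images of lung cancer cell lines grown in 1536-well plates for 5 days after pin-tool dosing on the day after seeding. Dosing used one drug alone or a fixed anchor-drug dose plus five library-drug doses (not always all listed) in √10 steps, and values are medians of duplicate plates.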"}, "[3]": {"compound": "CC1=C(C=CC(=C1)[N+](=O)[O-])NS(=O)(=O)C2=C(C=CC(=C2)Cl)Cl [FH535] + CS(=O)(=O)N1CCN(Cc2cc3nc(-c4cccc5[nH]ncc45)nc(N4CCOCC4)c3s2)CC1 [Pictilisib] (partner 1 µM)", "in_short": "as §1"}, "[4]": {"compound": "CC1=C(C=CC(=C1)[N+](=O)[O-])NS(=O)(=O)C2=C(C=CC(=C2)Cl)Cl [FH535] + COc1cc2c(Oc3ccc(NC(=O)C4(C(=O)Nc5ccc(F)cc5)CC4)cc3F)ccnc2cc1OCCCN1CCOCC1 [Foretinib] (partner 0.25 µM)", "in_short": "as §1"}, "[5]": {"compound": "CC1=C(C=CC(=C1)[N+](=O)[O-])NS(=O)(=O)C2=C(C=CC(=C2)Cl)Cl [FH535] + CC1(C)CCC(c2ccc(Cl)cc2)=C(CN2CCN(c3ccc(C(=O)NS(=O)(=O)c4ccc(N[C@H](CCN5CCOCC5)CSc5ccccc5)c(S(=O)(=O)C(F)(F)F)c4)cc3)CC2)C1 [Navitoclax] (partner 0.5 µM)", "in_short": "as §1"}, "[6]": {"compound": "CC1=C(C=CC(=C1)[N+](=O)[O-])NS(=O)(=O)C2=C(C=CC(=C2)Cl)Cl [FH535] + CS(=O)(=O)CCNCc1ccc(-c2ccc3ncnc(Nc4ccc(OCc5cccc(F)c5)c(Cl)c4)c3c2)o1 [Lapatinib] (partner 2 µM)", "in_short": "as §1"}, "[7]": {"compound": "CC1=C(C=CC(=C1)[N+](=O)[O-])NS(=O)(=O)C2=C(C=CC(=C2)Cl)Cl [FH535] + Cc1nc(NC(=O)N2CCC[C@H]2C(N)=O)sc1-c1ccnc(C(C)(C)C(F)(F)F)c1 [Alpelisib] (partner 2 µM)", "in_short": "as §1"}, "[8]": {"compound": "CC1=C(C=CC(=C1)[N+](=O)[O-])NS(=O)(=O)C2=C(C=CC(=C2)Cl)Cl [FH535] + C[C@]1(O)C[C@@H](c2nc(-c3ccc4ccc(-c5ccccc5)nc4c3)c3c(N)nccn32)C1 [Linsitinib] (partner 1 µM)", "in_short": "as §1"}, "[9]": {"compound": "CC1=C(C=CC(=C1)[N+](=O)[O-])NS(=O)(=O)C2=C(C=CC(=C2)Cl)Cl [FH535] + CC(C)C[C@H](NC(=O)[C@H](Cc1ccccc1)NC(=O)c1cnccn1)B(O)O [Bortezomib] (partner 0.002 µM)", "in_short": "as §1"}, "[10]": {"compound": "CC1=C(C=CC(=C1)[N+](=O)[O-])NS(=O)(=O)C2=C(C=CC(=C2)Cl)Cl [FH535] + C[C@@H](Oc1cc(-c2cnn(C3CCNCC3)c2)cnc1N)c1c(Cl)ccc(F)c1Cl [Crizotinib] (partner 1 µM)", "in_short": "as §1"}}, "data": [{"cell line": "Calu-6", "values": [{"measurement": "relative viability", "setting": "[1]; 0.04 µM", "result": 0.938}, {"measurement": "relative viability", "setting": "[1]; 0.1265 µM", "result": 1.05}, {"measurement": "relative viability", "setting": "[1]; 0.4 µM", "result": 0.956}, {"measurement": "relative viability", "setting": "[1]; 1.265 µM", "result": 0.792}, {"measurement": "relative viability", "setting": "[2]; first compound 0.04 µM", "result": 0.583}, {"measurement": "relative viability", "setting": "[2]; first compound 0.1265 µM", "result": 0.594}, {"measurement": "relative viability", "setting": "[2]; first compound 0.4 µM", "result": 0.532}, {"measurement": "relative viability", "setting": "[2]; first compound 1.265 µM", "result": 0.507}, {"measurement": "relative viability", "setting": "[3]; first compound 0.04 µM", "result": 1.02}, {"measurement": "relative viability", "setting": "[3]; first compound 0.1265 µM", "result": 0.911}, {"measurement": "relative viability", "setting": "[3]; first compound 0.4 µM", "result": 0.848}, {"measurement": "relative viability", "setting": "[3]; first compound 1.265 µM", "result": 0.748}, {"measurement": "relative viability", "setting": "[4]; first compound 0.04 µM", "result": 0.815}, {"measurement": "relative viability", "setting": "[4]; first compound 0.1265 µM", "result": 0.83}, {"measurement": "relative viability", "setting": "[4]; first compound 0.4 µM", "result": 0.877}, {"measurement": "relative viability", "setting": "[4]; first compound 1.265 µM", "result": 0.777}, {"measurement": "relative viability", "setting": "[5]; first compound 0.04 µM", "result": 0.912}, {"measurement": "relative viability", "setting": "[5]; first compound 0.1265 µM", "result": 0.849}, {"measurement": "relative viability", "setting": "[5]; first compound 0.4 µM", "result": 0.772}, {"measurement": "relative viability", "setting": "[5]; first compound 1.265 µM", "result": 0.547}, {"measurement": "relative viability", "setting": "[6]; first compound 0.04 µM", "result": 1.12}, {"measurement": "relative viability", "setting": "[6]; first compound 0.1265 µM", "result": 1.14}, {"measurement": "relative viability", "setting": "[6]; first compound 0.4 µM", "result": 1}, {"measurement": "relative viability", "setting": "[6]; first compound 1.265 µM", "result": 0.76}, {"measurement": "relative viability", "setting": "[7]; first compound 0.04 µM", "result": 1.07}, {"measurement": "relative viability", "setting": "[7]; first compound 0.1265 µM", "result": 0.982}, {"measurement": "relative viability", "setting": "[7]; first compound 0.4 µM", "result": 0.866}, {"measurement": "relative viability", "setting": "[7]; first compound 1.265 µM", "result": 0.87}, {"measurement": "relative viability", "setting": "[8]; first compound 0.04 µM", "result": 0.972}, {"measurement": "relative viability", "setting": "[8]; first compound 0.1265 µM", "result": 1.04}, {"measurement": "relative viability", "setting": "[8]; first compound 0.4 µM", "result": 1}, {"measurement": "relative viability", "setting": "[8]; first compound 1.265 µM", "result": 0.814}, {"measurement": "relative viability", "setting": "[9]; first compound 0.04 µM", "result": 0.908}, {"measurement": "relative viability", "setting": "[9]; first compound 0.1265 µM", "result": 1.03}, {"measurement": "relative viability", "setting": "[9]; first compound 0.4 µM", "result": 0.997}, {"measurement": "relative viability", "setting": "[9]; first compound 1.265 µM", "result": 0.772}, {"measurement": "relative viability", "setting": "[10]; first compound 0.04 µM", "result": 0.797}, {"measurement": "relative viability", "setting": "[10]; first compound 0.1265 µM", "result": 0.814}, {"measurement": "relative viability", "setting": "[10]; first compound 0.4 µM", "result": 0.783}, {"measurement": "relative viability", "setting": "[10]; first compound 1.265 µM", "result": 0.601}]}, {"cell line": "EBC-1", "values": [{"measurement": "relative viability", "setting": "[1]; 0.04 µM", "result": 0.924}, {"measurement": "relative viability", "setting": "[1]; 0.1265 µM", "result": 0.983}, {"measurement": "relative viability", "setting": "[1]; 0.4 µM", "result": 0.989}, {"measurement": "relative viability", "setting": "[1]; 1.265 µM", "result": 0.815}, {"measurement": "relative viability", "setting": "[2]; first compound 0.04 µM", "result": 0.675}, {"measurement": "relative viability", "setting": "[2]; first compound 0.1265 µM", "result": 0.657}, {"measurement": "relative viability", "setting": "[2]; first compound 0.4 µM", "result": 0.712}, {"measurement": "relative viability", "setting": "[2]; first compound 1.265 µM", "result": 0.566}, {"measurement": "relative viability", "setting": "[3]; first compound 0.04 µM", "result": 0.44}, {"measurement": "relative viability", "setting": "[3]; first compound 0.1265 µM", "result": 0.289}, {"measurement": "relative viability", "setting": "[3]; first compound 0.4 µM", "result": 0.402}, {"measurement": "relative viability", "setting": "[3]; first compound 1.265 µM", "result": 0.383}, {"measurement": "relative viability", "setting": "[4]; first compound 0.04 µM", "result": 0.114}, {"measurement": "relative viability", "setting": "[4]; first compound 0.4 µM", "result": 0.0911}, {"measurement": "relative viability", "setting": "[4]; first compound 1.265 µM", "result": 0.101}, {"measurement": "relative viability", "setting": "[5]; first compound 0.04 µM", "result": 0.364}, {"measurement": "relative viability", "setting": "[5]; first compound 0.1265 µM", "result": 0.391}, {"measurement": "relative viability", "setting": "[5]; first compound 0.4 µM", "result": 0.491}, {"measurement": "relative viability", "setting": "[5]; first compound 1.265 µM", "result": 0.416}, {"measurement": "relative viability", "setting": "[6]; first compound 0.04 µM", "result": 0.237}, {"measurement": "relative viability", "setting": "[6]; first compound 0.1265 µM", "result": 0.209}, {"measurement": "relative viability", "setting": "[6]; first compound 0.4 µM", "result": 0.196}, {"measurement": "relative viability", "setting": "[6]; first compound 1.265 µM", "result": 0.151}, {"measurement": "relative viability", "setting": "[7]; first compound 0.04 µM", "result": 0.737}, {"measurement": "relative viability", "setting": "[7]; first compound 0.1265 µM", "result": 0.82}, {"measurement": "relative viability", "setting": "[7]; first compound 0.4 µM", "result": 0.868}, {"measurement": "relative viability", "setting": "[7]; first compound 1.265 µM", "result": 0.816}, {"measurement": "relative viability", "setting": "[8]; first compound 0.04 µM", "result": 0.854}, {"measurement": "relative viability", "setting": "[8]; first compound 0.1265 µM", "result": 0.899}, {"measurement": "relative viability", "setting": "[8]; first compound 0.4 µM", "result": 0.91}, {"measurement": "relative viability", "setting": "[8]; first compound 1.265 µM", "result": 0.646}, {"measurement": "relative viability", "setting": "[9]; first compound 0.04 µM", "result": 0.622}, {"measurement": "relative viability", "setting": "[9]; first compound 0.1265 µM", "result": 0.638}, {"measurement": "relative viability", "setting": "[9]; first compound 0.4 µM", "result": 0.585}, {"measurement": "relative viability", "setting": "[9]; first compound 1.265 µM", "result": 0.449}, {"measurement": "relative viability", "setting": "[10]; first compound 0.04 µM", "result": 0.178}, {"measurement": "relative viability", "setting": "[10]; first compound 0.1265 µM", "result": 0.182}, {"measurement": "relative viability", "setting": "[10]; first compound 0.4 µM", "result": 0.192}, {"measurement": "relative viability", "setting": "[10]; first compound 1.265 µM", "result": 0.178}]}]}
